# Test results taken from patent publication US7824680B2, “Methods for inhibiting angiogenesis” (The Regents of the University of California, priority 2001, dated 2010).
# Test system: mice
# Assay: Murine bFGF matrigel plug angiogenesis, lectin-FITC fluorescence
# Assay type: in vivo
# Settings: bFGF matrigel s.c. containing 25 μg/ml antibody or 1 mM peptide; 72 hours
# Experimental: Angiogenesis was induced by subcutaneous injection of 400 μl of growth factor depleted matrigel supplemented 0.4 μg/ml bFGF and saline, 25 μg/ml function blocking anti-α4β1 antibodies or control antibodies. Alternatively, mice were injected with matrigel containing bFGF and 1 mM of the sequence EILDVPST (SEQ ID NO:52) or the control sequence EILEVPST (SEQ ID NO:53). After 72 hours, mice were injected with Bandiera Simplicifolia lectin-FITC conjugate. After 15 minutes, matrigel plugs were excised and homogenized. Fluorescence intensity within the lysed plug was determined and correlated with degree of angiogenesis as determined by standard immunohistochemical analyses.
sequence,measurement,value
EILDVPST [peptide antagonist of integrin α4β1],growth factor-stimulated angiogenesis (fluorescence intensity within the lysed matrigel plug),selectively and specifically inhibited
